Results reported in US6420391B1, “Fused thiophone derivatives and drugs containing the same as the active ingredient” (Ono Pharmaceutical Co., Ltd., priority 1998, dated 2002).
pIC50: −log10 of the molar value. Counter-ions that a name gives are not always drawn.

Legend:
Assay type in all cases: cell-based
[1] = test system: IL-6 production in A549 cells (human lung epithelial cell line); experiment: Inhibitory activity on IL-6 production (TNF-α-stimulated A549 cells, ELISA); conditions: TNF-α stimulation, incubation for 24 hours, IL-6 in supernatant by ELISA
Description: (§1) (1) Assaying Inhibitory Activity on IL-6 Production and Cellular Toxicity
(§2) 1.5×10^4 of A549 cells (human lung epithelial cell line) were suspended in dalbeco-modified eagle medium (DMEM) containing 0.5% fetus bovine serum (abbreviated as FBS)˜(100 μl) and incubated in 96 well-microplate over day and night. The test compound dissolved in various kinds of solvents at various concentrations (20 μl) and Tumor Necrosis Factor-α (TNF-α (Genzyme Co, Cat. No. TNF-H)) dissolved in DMEM at the concentration of 12.5 ng/ml (80 μl) were added thereto. After incubation for 24 hours, the supernatant (200 μl) was recovered to assay the quantity of IL-6 using Enzyme Linked Immuno […] Assay (ELISA) Method (R&D Systems Co., Cat. No. D6050), to calculate inhibitory activity of the test compound and determine 50% inhibitory concentration (IC50). To the cells from which the supernatant was removed, a solution of brom 3-(4,5-dimethyl-2-thiazolyl)-2,5-diphenyl-2H-tetrazolinium (abbreviated as MTT (Dojin Chemical Laboratory, Cat. No. 345-01821)) dissolved in DMEM containing 10% FBS at the concentration of 0.5 mg/ml (100 μl) was added and incubated for 3 hours. After removing MTT solution, methanol (100 μl) was added thereto. After lyse the cells, the intensity of absorbance on 570 nm as a control of 690 nm was determined to assay cellular toxicity of the test compound.

[2] = test system: A549 cells (human lung epithelial cell line); experiment: Cellular toxicity in A549 cells (MTT); conditions: at 10 μM
Description: as §1, §2

[3] = test system: IL-12 production in peripheral monocyte prepared from healthy human blood; experiment: Inhibitory activity on IL-12 production (IFN-γ/LPS-stimulated peripheral monocyte, ELISA); conditions: IFN-γ 24 hours then LPS 20 hours, IL-12 in supernatant by ELISA
Description: (§3) (2) Assaying Inhibitory Activity on IL-12 Production and Cellular Toxicity
(§4) 2.0×10^5 of peripheral monocyte prepared from healthy human blood by Ficole gravity centrifugation method (Pharmacia Biotech Co, Cat. No. 17-1440-02) were suspended in RPMI1640 medium containing 10% FBS (170 μl). The test compound dissolved in various kinds of solvents at the various concentrations (10 μl) and 6000 units/ml of Interferon-γ (IFN-γ (Serotec Co, Cat. No. PHP050)) (10 μl) dissolved in RPMI1640 medium containing 10% FBS. After incubation for 24 hours in 96 well-microplate, lipopolysaccharide (6 μg/ml) dissolved in RPMI1640 medium containing 10% FBS (LPS (Difco Co., Cat. No. 3120-25-0)) (10 μl) was added thereto. After incubation for 20 hours, the supernatant (150 μl) was recovered to assay the quantity of IL-12 using ELISA Method (R&D Systems Co, Cat. No. D1200), calculate for inhibitory activity of the test compound and determine 50% inhibitory concentration (IC50) (see J. Exp. Med., 183, 147 (1996)). To the cells from which the supernatant (150 μl) was removed, a solution of MTT dissolved in RPMI1640 medium containing 10% FBS at 1 mg/ml (50 μl) was added and incubated for 3 hours. 2-Propanol containing 0.04N HCl (100 μl) was added thereto. After lyse the cells, the intensity of absorbance on 570 nm as a control of 690 nm was determined to assay cellular toxicity of the test compound.

[4] = test system: peripheral monocyte prepared from healthy human blood; experiment: Cellular toxicity in peripheral monocyte (MTT); conditions: at 1 μM
Description: as §3, §4

| pIC50 [1] | SMILES | cellular toxicity [2] | pIC50 [3] | cellular toxicity [4] |
| --- | --- | --- | --- | --- |
| 5.36 | O=S1(=O)CC(S(=O)(=O)c2ccccc2)c2c(OCc3cccnc3)cccc21 (stereo not shown) [Example 20(4) free compound, 4-(Pyridin-3-ylmethyl) oxy-3-phenylsulfonyl-2,3-dihydro-1,1-dioxidebenzo[b]thiophene] | no cellular toxicity | – | – |
| – | O=S1(=O)CC(S(=O)(=O)c2ccccc2)c2c(OCc3cccnc3)cccc21 (stereo not shown) [Example 20(4) hydrochloride, 4-(Pyridin-3-ylmethyl) oxy-3-phenylsulfonyl-2,3-dihydro-1,1-dioxidebenzo[b]thiophene] | – | 6.96 | no cellular toxicity |
